Earlier results on 14 compounds are cited in the Kinase Knowledgebase extract (Sharma et al. 2016).

MAPK14 (human), sequence (Q16539 whole entry, looked up): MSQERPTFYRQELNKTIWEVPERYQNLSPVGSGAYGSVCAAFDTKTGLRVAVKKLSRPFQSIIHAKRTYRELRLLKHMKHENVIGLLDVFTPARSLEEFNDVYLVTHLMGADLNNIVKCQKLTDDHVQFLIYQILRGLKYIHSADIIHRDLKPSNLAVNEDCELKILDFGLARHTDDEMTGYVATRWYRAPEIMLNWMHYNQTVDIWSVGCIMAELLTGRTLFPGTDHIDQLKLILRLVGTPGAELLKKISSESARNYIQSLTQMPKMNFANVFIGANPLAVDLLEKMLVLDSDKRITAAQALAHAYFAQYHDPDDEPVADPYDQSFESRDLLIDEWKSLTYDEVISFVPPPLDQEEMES

The data set concerns the target MAPK14 (human) (UniProt Q16539). In words: Assessment of MAPK14 Kinase Activity.
By IC50 is commonly meant the concentration at which inhibition is half-maximal. For the compound `Cc1ccc(C(=O)NC2(C)CC2)cc1-c1cc2cnn(-c3c(F)cccc3F)c2n(C)c1=O`, the IC50 was 1.7 nM.

Take `Cc1ccc(C(=O)Nc2ccon2)cc1-c1cc2cnn(-c3c(F)cccc3F)c2n(C)c1=O`: the half-inhibitory concentration (IC50) was 1 nM.

As for `CCn1c(=O)c(-c2cc(C(=O)NC3CC3)ccc2C)cc2cnn(-c3ccc(F)cc3F)c21`, the IC50 was 0.6 nM.

`Cc1c(F)cc(C(=O)NC2CC2)cc1-c1cc2cnn(-c3c(F)cccc3F)c2n(C)c1=O`: the IC50 is 0.8 nM.

Take `CNc1noc2c(-c3cc4cnn(-c5c(F)cccc5F)c4n(C)c3=O)c(C)ccc12`: the IC50 was 2 nM.

As for `Cc1ccc(C(=O)NC2CC2)cc1-c1cc2cnn(-c3ccccc3Cl)c2n(C)c1=O`, the concentration for half-maximal inhibition (IC50) was 0.899 nM.

Regarding `Cc1ccc(C(=O)NC2CC2)cc1-c1cc2cnn(-c3ccccc3C)c2n(C)c1=O`, the half-inhibitory concentration (IC50) was 1.9 nM.

On to `Cc1ccc(C(=O)O)cc1Nc1cc(=O)n(C)c2c1cnn2-c1ccc(F)cc1F`, for which the IC50 is 1000 nM.

With `Cc1ccc(C(=O)NC2CC2)cc1-c1cc2cnn(-c3ncccc3C(F)(F)F)c2n(C)c1=O`, the IC50 is 2.3 nM.

Take `Cn1c(=O)cc(Nc2ccc(F)cc2)c2cnn(-c3c(F)cccc3F)c21`: the IC50 was 1000 nM.

For `Cn1c(=O)cc(Nc2ccc(F)cc2F)c2cnn(-c3ccc(F)cc3F)c21`, the 50% inhibitory concentration (IC50) was 1000 nM.

On to `Cn1c(=O)cc(NC2CCOCC2)c2cnn(-c3cccc(F)c3)c21`, for which the IC50 was 1000 nM.

Turning to `Cc1ccc(C(N)=O)cc1-c1cc2cnn(-c3c(F)cccc3F)c2n(C)c1=O`, the half-inhibitory concentration (IC50) was 1.5 nM.

For `Cc1ccc(C(=O)NC2CC2)cc1-c1cc2cnn(-c3cc(F)ccc3F)c2n(C)c1=O`, the half-maximal inhibitory concentration (IC50) was 1.9 nM.
